“And” between values parts separate entries of the source, which are not always exact repeats. Equal entries are not always repeated. “Also recorded” adds a separate entry of the source. Where two headings read alike, the source gives them in different places. Where a SMILES comes first, the peptide text is derived from it.
What was measured:
Assay type in all cases: binding
hCdc20^WD40 = target: T1, hCdc20^WD40 (Homo sapiens, UniProt Q12834); assay: SMOR assay, human Cdc20 WD40; settings: for Dwell Time: Clb5: Not 3x shutter speed
T1 construct: human Cdc20 (aa 162–484; pNH188); made in house; host or cells: Sf9 insect cells (baculovirus)
T1 sequence (Q12834 162-484): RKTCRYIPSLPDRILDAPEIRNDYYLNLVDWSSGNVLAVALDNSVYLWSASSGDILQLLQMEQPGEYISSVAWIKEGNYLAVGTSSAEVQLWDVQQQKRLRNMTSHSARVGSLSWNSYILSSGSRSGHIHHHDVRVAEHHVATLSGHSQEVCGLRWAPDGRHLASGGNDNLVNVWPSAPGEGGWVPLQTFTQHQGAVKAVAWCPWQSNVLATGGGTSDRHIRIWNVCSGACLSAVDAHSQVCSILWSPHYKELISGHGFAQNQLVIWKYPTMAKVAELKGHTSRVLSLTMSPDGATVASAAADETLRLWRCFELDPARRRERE
Procedure: (§1) Activators were cloned into the pFastBac HT A vector, with an N-terminal 2xStrep-Tag II. For some experiments, we constructed vectors for expression of the WD40 domains of yeast Cdh1 (aa 241–550; pNH144), human Cdh1 (aa 165–484; pNH164), or human Cdc20 (aa 162–484; pNH188). For SMOR, a C-terminal GFP tag was added. Bacmid plasmids are listed in Supplementary Table 3. Plasmids were transformed into DH10Bac cells, and purified Bacmid was used to transfect Sf9 cells to generate P1 baculovirus, which was used to generate P2 virus. SF9 cells were infected with the P2 virus for 48 h. Flash-frozen pellets were lysed by sonication or high-pressure homogenization in lysis buffer B (50 mM Tris-HCl pH 8, 150 mM KCl, 0.5 mM EDTA, 1 mM DTT, 10% Glycerol, EDTA-free protease inhibitor tablet, 1 µg ml^−1 pepstatin A). After the lysate was applied to the StrepTrap column, the column was washed with wash buffer B (lysis buffer B lacking protease inhibitors) and eluted in the same buffer containing 2.5 mM desthiobiotin.
(§2) For all SMOR experiments, 24 × 50 mm high precision glass coverslips (Bioscience Tools) and drilled microscope slides were passivated with a combination of PEG and PEG-biotin (coverslips) or PEG only (slides) following a previously published protocol for SiMPull[31]. Reaction chambers (~20 µl) were created using double-sided tape and epoxy. Protein was immobilized on the surface with 0.2 mg ml^−1 NeutrAvidin in buffer C (20 mM HEPES pH 7.5, 150 mM KCl, 10% glycerol, 0.05% Tween-20, 1 mM DTT). Excess NeutrAvidin was washed away and incubated with either biotin-conjugated mouse monoclonal anti-Strep-Tag II antibody (LSBio, Cat. No. LS-C203632-100) or biotin-conjugated rabbit polyclonal anti-GFP antibody (Rockland, Cat. No. 600-406-215) diluted in buffer C + BSA (0.1 mg ml^−1; Molecular Biology Grade Bovine Serum Albumin). Activator WD40 and activated APC/C (typically 50 µl containing about 65 ng APC/C, of which only a small fraction is immobilized on the glass) were immobilized using anti-Strep-Tag II, while APC/C alone was immobilized with anti-GFP. SMOR results were similar when performed in the buffer (wash buffer B) used in polarization anisotropy.
(§3) To capture dynamic protein–protein interactions, dye-labeled substrate diluted in buffer C + BSA was added to the chamber containing immobilized proteins. Interactions were imaged by TIRF microscopy as described below. For optimal signal-to-noise ratio, peptide concentration was no greater than 1 nM. Protein substrates included Hsl1 aa 667–872 and a C-terminal HaloTag followed by a TAP tag, and were produced by translation in rabbit reticulocyte lysates using TnT Quick Coupled Transcription/Translation System (Promega) (see Supplementary Table 5 for plasmids). Protein was purified with magnetic IgG beads and labeled on the bead with JF549 or JF646 dye so that unbound dye could be washed away. Purified dye-labeled protein was then cleaved from the beads using TEV protease. Before adding substrate to the reaction chamber, oxygen scavenging reagents were added (10 nM protocatechuate-3,4-dioxygenase, 2.5 mM protocatechuic acid, and 1 mM Trolox)[41]. A detailed description of the SMOR analysis pipeline is found in Supplementary Note 1.
(§4) Microscopy was performed with a Nikon Eclipse TE2000-E with Perfect Focus with a 100 × 1.49na oil, Apo TIRF DIC N2, 0.13-0.2, WD0.12 objective. Movies were recorded using the Andor iXon DU-897E-CSO. For visualizing GFP-tagged protein, a 491 nm laser was used with an ET525/50 (Chroma) filter for emission. For visualizing JF549-labeled substrate, a 561 nm laser was used with an ET595/50 (Chroma) filter for emission. For visualizing all Cy5-labeled peptides and JF646-labeled substrates, a 640 nm laser was used with an ET685/70 filter (Chroma) for emission. […]

APC/C^Cdh1 = target: T2, APC/C^Cdh1 (Saccharomyces cerevisiae, UniProt P53068+P53197); settings: for mean dwell time: representative of two independent experiments, ± SE, ligand ≤1 nM, buffer C + BSA
T2 construct: APC/C was purified from yeast cells; made in house; host or cells: APC/C from S. cerevisiae W303 strain NHY13 (Cdc16-TAP, Apc1-GFP, cdh1 deleted); Cdh1 from Sf9 (baculovirus)
Procedure: Yeast strains were derivatives of W303 and are listed in Supplementary Table 2. For APC/C purification, we used a strain carrying Cdc16-TAP and lacking Cdh1 (DOM1126); in most experiments, the strain also carried Apc1-GFP (NHY13). Yeast were grown in YPD media to OD600 = 0.8, collected and flash-frozen. Cells were lysed by bead beating in lysis buffer A (50 mM HEPES pH 7.5, 150 mM KCl, 10% glycerol, 0.2% Triton X-100, 63 µM B-glycerophosphate, 48 µM sodium fluoride, 1 µg ml^−1 pepstatin A, 1 µg ml^−1 leupeptin, 1 µg ml^−1 aprotinin, 1 mM PMSF, 1 mM DTT, 0.5 mM EDTA) and APC/C was purified using magnetic IgG beads. The beads were washed using wash buffer A (20 mM HEPES pH 7.5, 150 mM KCl, 10% Glycerol, 0.05% Triton X-100). After incubation with purified Cdh1 or Cdc20, the APC/C was cleaved off the beads with TEV protease in wash buffer A with 0.05% Tween-20 (for single-molecule studies) or 0.05% Triton X-100 (for ensemble assays such as ubiquitylation) and used immediately.
as §2, §3
Microscopy was performed with a Nikon Eclipse TE2000-E with Perfect Focus with a 100 × 1.49na oil, Apo TIRF DIC N2, 0.13-0.2, WD0.12 objective. Movies were recorded using the Andor iXon DU-897E-CSO. For visualizing GFP-tagged protein, a 491 nm laser was used with an ET525/50 (Chroma) filter for emission. For visualizing JF549-labeled substrate, a 561 nm laser was used with an ET595/50 (Chroma) filter for emission. For visualizing all Cy5-labeled peptides and JF646-labeled substrates, a 640 nm laser was used with an ET685/70 filter (Chroma) for emission. Initially, for each substrate tested, we acquired movies at multiple intervals to deduce the optimal interval to decrease bleaching. µManager version 2.0 was used to control the microscope and record time-lapse movies.

hCdh1^WD40 = target: T3, hCdh1^WD40 (Homo sapiens, UniProt Q9UM11); assay: SMOR assay, human Cdh1 WD40; settings: for mean dwell time: representative of two independent experiments, ± SE, ligand ≤1 nM, buffer C + BSA
T3 construct: human Cdh1 (aa 165–484; pNH164); made in house; host or cells: Sf9 insect cells (baculovirus)
T3 sequence (Q9UM11 165-484): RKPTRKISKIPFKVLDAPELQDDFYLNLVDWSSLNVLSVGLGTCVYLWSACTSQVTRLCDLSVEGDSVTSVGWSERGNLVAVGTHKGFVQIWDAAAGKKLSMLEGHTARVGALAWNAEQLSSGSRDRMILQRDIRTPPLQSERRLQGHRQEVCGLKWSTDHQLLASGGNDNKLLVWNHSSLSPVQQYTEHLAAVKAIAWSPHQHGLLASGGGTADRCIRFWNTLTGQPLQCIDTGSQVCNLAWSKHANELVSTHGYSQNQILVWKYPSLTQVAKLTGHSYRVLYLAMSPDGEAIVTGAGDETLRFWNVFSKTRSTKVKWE
Procedure: as §1, §2, §3, §4

[1] = Supplementary Table 1, replicate 1 (movie listed first)
[2] = Supplementary Table 1, replicate 2 (movie listed second)
[3] = Supplementary Table 1, replicate 1
[4] = Supplementary Table 1, replicate 2

Compound	Dwell Time (hCdc20^WD40; [1])	Dwell Time (hCdc20^WD40; [2])	mean dwell time (hCdc20^WD40; less than three times the frame rate, therefore less reliable (footnote a))	Dwell Time (APC/C^Cdh1; [1])	Dwell Time (APC/C^Cdh1; [2])	mean dwell time (APC/C^Cdh1)	Dwell Time (in words) (hCdh1^WD40; [3])	Dwell Time (in words) (hCdh1^WD40; [4])	binding (in words) (hCdc20^WD40)	Dwell Time (in words) (hCdc20^WD40; [3])	binding (in words) (APC/C^Cdh1)	Dwell Time (in words) (APC/C^Cdh1; [3])	binding (in words) (hCdh1^WD40)	Dwell Time (in words) (hCdc20^WD40; [4])	Dwell Time (in words) (APC/C^Cdh1; [4])	Dwell Time (hCdh1^WD40; [1])	Dwell Time (hCdh1^WD40; [2])	mean dwell time (hCdh1^WD40)
CC(C)C[C@H](NC(=O)[C@H](C)NC(=O)[C@H](CCCNC(=N)N)NC(=O)[C@H](CCCNC(=N)N)NC(=O)[C@@H]1CCCN1C(=O)[C@H](CCCCN)NC(=O)[C@H](CO)NC(=O)[C@H](CC(=O)O)NC(=O)[C@@H](N)CCC(N)=O)C(=O)N[C@H](C(=O)N[C@@H](CC(=O)O)C(=O)N[C@H](C(=O)N1CCC[C@H]1C(=O)N[C@H](C(=O)N[C@@H](CC(N)=O)C(=O)N[C@@H](CC(N)=O)C(=O)N[C@@H](CC(N)=O)C(=O)N1CCC[C@H]1C(=O)N[C@@H](CC(C)C)C(=O)N[C@@H](CO)C(=O)N[C@@H](CCC(N)=O)C(=O)N[C@@H](CCCCN)C(=O)O)C(C)C)C(C)C)[C@@H](C)O [Clb5 D box] (H-QDSKPRRALTDVPVNNNPLSQK-OH; N-terminus and C-terminus assumed)	0.054 ± 0.001 s	0.058 ± 0.001 s	0.054 s^a	0.146 ± 0.007 s	0.159 ± 0.004 s	0.159 ± 0.004 s and 0.159 s	single frame	single frame										
CC[C@H](C)[C@H](NC(=O)[C@H](CC(=O)O)NC(=O)[C@H](CO)NC(=O)[C@H](C)NC(=O)[C@H](C)NC(=O)[C@H](C)NC(=O)[C@H](C)NC(=O)[C@H](CCCCN)NC(=O)[C@@H]1CCCN1C(=O)[C@H](CCCCN)NC(=O)[C@H](CCC(N)=O)NC(=O)[C@@H](N)CCC(=O)O)C(=O)N[C@H](C(=O)N[C@@H](C)C(=O)N[C@@H](CO)C(=O)N[C@@H](Cc1ccccc1)C(=O)N[C@@H](CC(N)=O)C(=O)N[C@@H](CCCCN)C(=O)N[C@@H](CCSC)C(=O)N[C@@H](CC(N)=O)C(=O)N[C@@H](CCCCN)C(=O)O)[C@@H](C)O [Hsl1 D box mutant] (H-EQKPKAAAASDITASFNKMNK-OH; N-terminus and C-terminus assumed)							no binding		No binding	no binding	No binding	no binding	No binding					
CC[C@H](C)[C@H](NC(=O)[C@H](Cc1ccccc1)NC(=O)[C@H](CO)NC(=O)[C@H](CCCCN)NC(=O)[C@H](CO)NC(=O)[C@H](CCCNC(=N)N)NC(=O)[C@H](CC(N)=O)NC(=O)[C@H](CC(N)=O)NC(=O)[C@H](CC(=O)O)NC(=O)[C@H](CCCCN)NC(=O)[C@H](C)NC(=O)[C@H](C)NC(=O)[C@H](CC(C)C)NC(=O)[C@@H]1CCCN1C(=O)[C@H](CC(C)C)NC(=O)[C@H](CCCNC(=N)N)NC(=O)CNC(=O)[C@H](CCC(N)=O)NC(=O)[C@H](CCC(N)=O)NC(=O)[C@H](CCC(N)=O)NC(=O)[C@H](C)N)C(=O)N[C@@H](CCCCN)C(=O)O [ySecurin D box] (H-AQQQGRLPLAAKDNNRSKSFIK-OH; N-terminus and C-terminus assumed)				0.132 ± 0.002 s	0.121 ± 0.006 s	0.132 ± 0.002 s and 0.132 s	single frame	single frame		single frame				single frame				
LIYVDKENGEPGTR-K(Cy5) [hSecurin KEN, Cy5-labeled KEN box peptide of human securin/Pttg1]									did not bind human Cdc20^WD40; also recorded: No binding	no binding	No binding	no binding		no binding	no binding	0.171 ± 0.004 s	0.174 ± 0.003 s	0.174 ± 0.003 s and 0.174 s
LPKATRKALGTVNRATEKSVK-K(Cy5) [AurKB D box, Cy5-labeled D box peptide of Aurora B kinase]									single-frame interactions only	single frame	No binding	no binding		single frame	no binding	0.202 ± 0.003 s	0.135 ± 0.003 s	0.202 ± 0.003 s and 0.202 s
SKAAQFMLYEETAEERNI-K(Cy5) [Acm1 ABBA, Cy5-labeled Cdh1-specific ABBA motif from pseudosubstrate yeast protein Acm1]							no binding	no binding	No binding	no binding	No binding	no binding	No binding	no binding	no binding			
